System: WSU-DLCL2 cells
Experiment: RT2 Glucocorticoid signaling PCR array, WSU-DLCL2 (WSU) cell line (Table 4c)
Assay type: cell-based

Compound: C[C@]12C=CC(=O)C=C1CC[C@@H]1[C@@H]2[C@@H](O)C[C@@]2(C)[C@H]1CC[C@]2(O)C(=O)CO [Prednisolone, prednisolone]
- Ct Values, ACTB (gene ACTB): 14.572
- ΔCT (B2M), ACTB (gene ACTB): −4.573
- Ct Values, ADARB1 (gene ADARB1): 26.108
- ΔCT (B2M), ADARB1 (gene ADARB1): 6.963
- ΔΔCT, ADARB1 (gene ADARB1, compared to DMSO): 0.097
- Ct Values, AFF1 (gene AFF1): 27.334
- ΔCT (B2M), AFF1 (gene AFF1): 8.189
- ΔΔCT, AFF1 (gene AFF1, compared to DMSO): −0.464
- Ct Values, AK2 (gene AK2): 20.433
- ΔCT (B2M), AK2 (gene AK2): 1.288
- ΔΔCT, AK2 (gene AK2, compared to DMSO): 0.094
- Ct Values, AMPD3 (gene AMPD3): 27.943
- ΔCT (B2M), AMPD3 (gene AMPD3): 8.798
- ΔΔCT, AMPD3 (gene AMPD3, compared to DMSO): −0.219
- Ct Values, ANGPTL4 (gene ANGPTL4): 30.810
- ΔCT (B2M), ANGPTL4 (gene ANGPTL4): 11.665
- ΔΔCT, ANGPTL4 (gene ANGPTL4, compared to DMSO): −0.329
- Ct Values, ANXA4 (gene ANXA4): 27.406
- ΔCT (B2M), ANXA4 (gene ANXA4): 8.261
- ΔΔCT, ANXA4 (gene ANXA4, compared to DMSO): −0.025
- Ct Values, AQP1 (gene AQP1): 33.595
- ΔCT (B2M), AQP1 (gene AQP1): 14.450
- Ct Values, ARID68 (gene ARID68): 26.721
- ΔCT (B2M), ARID68 (gene ARID68): 7.576
- ΔΔCT, ARID68 (gene ARID68, compared to DMSO): 0.722
- Ct Values, ASPH (gene ASPH): 21.939
- ΔCT (B2M), ASPH (gene ASPH): 2.794
- ΔΔCT, ASPH (gene ASPH, compared to DMSO): −0.041
- Ct Values, ATF4 (gene ATF4): 19.659
- ΔCT (B2M), ATF4 (gene ATF4): 0.514
- ΔΔCT, ATF4 (gene ATF4, compared to DMSO): 0.090
- Ct Values, B2M (gene B2M (normaliser)): 19.145
- ΔCT (B2M), B2M (gene B2M (normaliser)): 0.000
- Ct Values, BCL6 (gene BCL6): 20.898
- ΔCT (B2M), BCL6 (gene BCL6): 1.753
- ΔΔCT, BCL6 (gene BCL6, compared to DMSO): 0.249
- Ct Values, CEBPA (gene CEBPA): 27.838
- ΔCT (B2M), CEBPA (gene CEBPA): 8.693
- ΔΔCT, CEBPA (gene CEBPA, compared to DMSO): −0.295
- Ct Values, CEBPB (gene CEBPB): 25.775
- ΔCT (B2M), CEBPB (gene CEBPB): 6.630
- ΔΔCT, CEBPB (gene CEBPB, compared to DMSO): 0.814
- Ct Values, COL4A2 (gene COL4A2): 34.328
- ΔCT (B2M), COL4A2 (gene COL4A2): 15.183
- Ct Values, CREB1 (gene CREB1): 22.732
- ΔCT (B2M), CREB1 (gene CREB1): 3.587
- ΔΔCT, CREB1 (gene CREB1, compared to DMSO): −0.133
- Ct Values, CREB3 (gene CREB3): 24.551
- ΔCT (B2M), CREB3 (gene CREB3): 5.406
- ΔΔCT, CREB3 (gene CREB3, compared to DMSO): −0.453
- Ct Values, CREB3L4 (gene CREB3L4): 24.437
- ΔCT (B2M), CREB3L4 (gene CREB3L4): 5.292
- ΔΔCT, CREB3L4 (gene CREB3L4, compared to DMSO): −0.330
- Ct Values, CYB561 (gene CYB561): 32.971
- ΔCT (B2M), CYB561 (gene CYB561): 13.826
- ΔΔCT, CYB561 (gene CYB561, compared to DMSO): −3.598
- Ct Values, DDIT4 (gene DDIT4): 22.252
- ΔCT (B2M), DDIT4 (gene DDIT4): 3.107
- ΔΔCT, DDIT4 (gene DDIT4, compared to DMSO): −1.672
- Ct Values, DUSP1 (gene DUSP1): 25.828
- ΔCT (B2M), DUSP1 (gene DUSP1): 6.683
- ΔΔCT, DUSP1 (gene DUSP1, compared to DMSO): 0.454
- Ct Values, EDN1 (gene EDN1): 30.019
- ΔCT (B2M), EDN1 (gene EDN1): 11.674
- Ct Values, EHD3 (gene EHD3): 27.724
- ΔCT (B2M), EHD3 (gene EHD3): 8.579
- ΔΔCT, EHD3 (gene EHD3, compared to DMSO): −1.645
- Ct Values, FK8PS (gene FK8PS): 21.321
- ΔCT (B2M), FK8PS (gene FK8PS): 2.176
- ΔΔCT, FK8PS (gene FK8PS, compared to DMSO): −1.247
- Ct Values, FOSL2 (gene FOSL2): 33.647
- ΔCT (B2M), FOSL2 (gene FOSL2): 14.502
- ΔΔCT, FOSL2 (gene FOSL2, compared to DMSO): 2.843
- Ct Values, GAPDH (gene GAPDH): 16.349
- ΔCT (B2M), GAPDH (gene GAPDH): −2.796
- Ct Values, GDPD1 (gene GDPD1): 28.235
- ΔCT (B2M), GDPD1 (gene GDPD1): 9.090
- ΔΔCT, GDPD1 (gene GDPD1, compared to DMSO): 0.169
- Ct Values, GHRHR (gene GHRHR): 37.739
- ΔCT (B2M), GHRHR (gene GHRHR): 18.644
- ΔΔCT, GHRHR (gene GHRHR, compared to DMSO): 3.458
- Ct Values, GLUL (gene GLUL): 31.475
- ΔCT (B2M), GLUL (gene GLUL): 12.330
- Ct Values, GOT1 (gene GOT1): 22.841
- ΔCT (B2M), GOT1 (gene GOT1): 3.696
- ΔΔCT, GOT1 (gene GOT1, compared to DMSO): 0.262
- Ct Values, H6PD (gene H6PD): 26.197
- ΔCT (B2M), H6PD (gene H6PD): 7.052
- ΔΔCT, H6PD (gene H6PD, compared to DMSO): 0.142
- Ct Values, HNRPLL (gene HNRPLL): 24.750
- ΔCT (B2M), HNRPLL (gene HNRPLL): 5.605
- ΔΔCT, HNRPLL (gene HNRPLL, compared to DMSO): 1.026
- Ct Values, HPRT1 (gene HPRT1): 21.361
- ΔCT (B2M), HPRT1 (gene HPRT1): 2.216
- Ct Values, IL1RN (gene IL1RN): 33.599
- ΔCT (B2M), IL1RN (gene IL1RN): 14.454
- ΔΔCT, IL1RN (gene IL1RN, compared to DMSO): 1.298
- Ct Values, IL10 (gene IL10): 34.306
- ΔCT (B2M), IL10 (gene IL10): 15.161
- Ct Values, KLF9 (gene KLF9): 30.105
- ΔCT (B2M), KLF9 (gene KLF9): 10.960
- ΔΔCT, KLF9 (gene KLF9, compared to DMSO): −0.431
- Ct Values, KLF13 (gene KLF13): 23.792
- ΔCT (B2M), KLF13 (gene KLF13): 4.647
- ΔΔCT, KLF13 (gene KLF13, compared to DMSO): −0.442
- Ct Values, LOX (gene LOX): 34.511
- ΔCT (B2M), LOX (gene LOX): 15.366
- ΔΔCT, LOX (gene LOX, compared to DMSO): 0.550
- Ct Values, MERTK (gene MERTK): 32.524

Reference: patent publication US10456407B2, “Combination therapy for treating cancer” (Epizyme, Inc., priority 2015, dated 2019)
